Measurements: paper PMC7822874, “Chemoprotective antimalarials identified through quantitative high-throughput screening of Plasmodium blood and liver stage parasites” (Scientific Reports, 2021)
“And” between values parts separate entries of the source, which are not always exact repeats. Equal values may be shown once. Read-outs that look alike come from different tables or passages of the source.

Experiments:
[1] = system: T1, Plasmodium falciparum Dd2-attB (parental line), asexual blood stages; assay: microbe, parasite or virus in culture; design: replicate k of 3 (each line is one of three independent assays; the three lines of one compound and parasite line follow each other); conditions: n = 1; for Individual replicates / Log AC50 (M): 72 h; for AC50: Plasmodium falciparum, DD2, 72 h, read-out: Individual replicates / Log AC50 (converted)
T1 construct: Dd2-attB, the isogenic parental line
Description: (§1) The overexpression of the fumarate-dependent yeast DHODH confers resistance to compounds that inhibit the parasite mETC, or the parasite DHODH enzyme that depends on ubiquinone provided by the parasite mETC. Assays were performed in three independent assays on a subset of compounds, and differences between the Dd2-attB parental line and the ScDHODH transgenic line were analyzed using two-sided Student’s t-tests.

[2] = system: P. berghei-ANKA-GFP-LucCON liver stage parasites in HepG2-A16-CD81EGFP cells; assay: P. berghei liver stage Pb-Luc assay, Method 1 (UCSD, 1536-well); format: cell-based, Plasmodium berghei; conditions: Plasmodium berghei, 48 h, average of 2 wells, 1536-well plate; for activity at 1 µM: nominal 1 uM (10 mM stock), […] for 15 mM, 1.2 uM for 12 mM, 2 uM for 20 mM stock; for activity at 3 µM: nominal 3 uM (10 mM stock), 4.5 uM for 15 mM, 3.6 uM for 12 mM, 6 uM for 20 mM stock; as to all read-outs here: reference of the scale not given here
[3] = system: Plasmodium falciparum Dd2 asexual blood stage parasites; assay: microbe, parasite or virus in culture; design: species or system Plasmodium falciparum Dd2 in human erythrocytes; single determination (one 11-point concentration-response curve); conditions: Plasmodium falciparum, DD2, Erythrocyte, 72 h; read-out: AC50
in vitro = conditions: human
[4] = system: T2, Plasmodium falciparum Dd2-attB-ScDHODH (transgenic line expressing yeast DHODH), asexual blood stages; assay: organism not typed; design: replicate k of 3 (each line is one of three independent assays; the three lines of one compound and parasite line follow each other); conditions: 72 h; n = 1; read-out: Individual replicates / Log AC50 (converted)
T2 construct: Dd2-attB-ScDHODH, the transgenic line that expresses yeast DHODH
Description: as §1

[5] = repeat 1, read-out: Pb-Luc signal, 1 uM, repeat 1
[6] = repeat 2, read-out: Pb-Luc signal, 1 uM, repeat 2
[7] = repeat 3, read-out: Pb-Luc signal, 1 uM, repeat 3
[8] = repeat 1, read-out: Pb-Luc signal, 3 uM, repeat 1
[9] = repeat 2, read-out: Pb-Luc signal, 3 uM, repeat 2
[10] = repeat 3, read-out: Pb-Luc signal, 3 uM, repeat 3
[11] = HepG2-A16-CD81EGFP cells, uninfected
[12] = nominal 1 uM (10 mM stock), […] for 15 mM, 1.2 uM for 12 mM, 2 uM for 20 mM stock, average of 2 wells, repeat 2
[13] = nominal 3 uM (10 mM stock), 4.5 uM for 15 mM, 3.6 uM for 12 mM, 6 uM for 20 mM stock, average of 2 wells, repeat 2

Structure (SMILES)	Individual replicates / Log AC50 (M) [1]	AC50 [1] [µM]	activity at 1 µM [2, 5] [%]	activity at 1 µM [2, 6] [%]	activity at 1 µM [2, 7] [%]	activity at 3 µM [2, 8] [%]	activity at 3 µM [2, 9] [%]	activity at 3 µM [2, 10] [%]	AC50 [3] [µM]	viability at 48 h, 1 µM (in vitro; [11]) [%]	viability at 48 h, 3 µM (in vitro; [11]) [%]	HepG2 viability signal, 1 uM, repeat 2 (HepG2-A16-CD81EGFP cells; [12]) [%]	HepG2 viability signal, 3 uM, repeat 2 (HepG2-A16-CD81EGFP cells; [13]) [%]	viability at 48 h, 1 µM (in vitro) [%]	viability at 48 h, 3 µM (in vitro) [%]	HepG2 viability signal, 1 uM, repeat 2 (HepG2-A16-CD81EGFP cells; human, 48 h, 1 µM) [%]	HepG2 viability signal, 3 uM, repeat 2 (HepG2-A16-CD81EGFP cells; human, 48 h, 3 µM) [%]	AC50 [4] [µM]
CCOC(=O)c1ccncc1Nc1nn(CCN2CCC(F)(F)CC2)c2ccc(F)cc12 [NCGC00388588-01]	-4.7486 Log AC50 (M) and -4.7986 Log AC50 (M)	15.9																
c1ccc(CCn2nc(-c3cnccn3)nc2CCCN2CCCCC2)cc1 [NCGC00390063-01]		7.97																
NC(=O)c1csc(-n2cc(Cc3ccc([S+](N)(=O)[O-])cc3)c(-c3cccc(-c4ccccc4)c3)n2)n1 [NCGC00390757-01]	-4.9986 Log AC50 (M) and -4.8486 Log AC50 (M)	20																
Cc1nn2c(c1-c1ccccc1-c1ccccc1)N(Cc1ccccc1)CCC2 [NCGC00420451-02]		15.9																
Fc1ccc(N2CCCN(C[C@H]3[C@@H]4CNC[C@@H]43)CC2)cc1 [NCGC00435915-01]			97.7	120	120	53.5	38.2	21.5	8.41	102	124	103.90	120.28					
CCOc1ccc(Cl)cc1CN(C)CC1(O)CCCNC1 (stereo not drawn) [NCGC00439019-01]			133	111	171	102	113	128	2.99	99.5	96.9	100.51	101.33					
COc1cccc([C@@H]2CCN(Cc3[nH]c4ccccc4c3C)C[C@H]2O)c1 [NCGC00443267-01]			83.1	92.1	74.1	85.2	118	62.2	1.5					91.9	96.2	93.46	93.99	
COc1ccc(-c2noc(-c3cccn3CC(=O)Nc3ccccc3F)n2)cc1F [NCGC00445496-01]			109	140	144	172	189	163	4.22	98.5	101		99.66					
COc1ccc(-c2noc(-c3cccn3CC(=O)Nc3ccccc3)n2)cc1F [NCGC00445500-01]			155	167	187	187	192	169	2.37	103	105	98.82	102.85					
CCOc1ccccc1CN1CCCN(Cc2ccncc2)C(c2ccccc2)CC(=O)NCC1 (stereo not drawn) [NCGC00467181-01]			105	89.1	111	102	80.2	86.4	6.68	101	96.8	96.74	96.24					
Cn1nc(C(=O)NCC(=O)N2CCCCCCNC(=O)CC2c2ccccc2)c2ccccc21 (stereo not drawn) [NCGC00467428-01]			90.2	74	75.4	105	88.2	105	2.11	108	106	105.85	101.81					
Cc1cnc(CC2CCN([S+](=O)([O-])c3ccccc3)CC2)n1Cc1ccccc1 [NCGC00469740-01]			97.2	133	138	81.1	76.7	90.7	5.31	94.7	96.4	97.06	98.63					
COc1ccccc1NC(=O)N1CCOc2ccc(CN3CCc4ccccc4C3)cc2C1 [NCGC00471234-01]			118	82	108	110	87.1	47	2.37	98	96.8	96.28	96.50					
CN1CCC(CNCc2nccc3c(=O)[nH]c(COc4ccc(Cc5ccccc5)cc4)nc23)C1 (stereo not drawn) [NCGC00489856-02]	-4.7486 Log AC50 (M)																	
c1ccc(CN2CCCn3ncc(-c4ccccc4-c4ccccc4)c32)cc1 [NCGC00499205-01]	-4.8486 Log AC50 (M)	15.9																
Cc1nn2c(c1-c1ccnn1C(C)C)N(CCCc1ccccc1)CCC2 [NCGC00499719-01]																		17.8
